From patent publication US8901118B2, “Compounds and methods for kinase modulation, and indications therefor” (Plexxikon Inc., priority 2010, dated 2014)

Experiments:
CYP1A2 = biological target: T1, CYP1A2 (Homo sapiens, UniProt P05177); test: CYP1A2 inhibition (fluorescent substrate CEC); format: in vitro ADME; conditions: read-out: Cyp IC50 1A2
T1 sequence (P05177 1-516): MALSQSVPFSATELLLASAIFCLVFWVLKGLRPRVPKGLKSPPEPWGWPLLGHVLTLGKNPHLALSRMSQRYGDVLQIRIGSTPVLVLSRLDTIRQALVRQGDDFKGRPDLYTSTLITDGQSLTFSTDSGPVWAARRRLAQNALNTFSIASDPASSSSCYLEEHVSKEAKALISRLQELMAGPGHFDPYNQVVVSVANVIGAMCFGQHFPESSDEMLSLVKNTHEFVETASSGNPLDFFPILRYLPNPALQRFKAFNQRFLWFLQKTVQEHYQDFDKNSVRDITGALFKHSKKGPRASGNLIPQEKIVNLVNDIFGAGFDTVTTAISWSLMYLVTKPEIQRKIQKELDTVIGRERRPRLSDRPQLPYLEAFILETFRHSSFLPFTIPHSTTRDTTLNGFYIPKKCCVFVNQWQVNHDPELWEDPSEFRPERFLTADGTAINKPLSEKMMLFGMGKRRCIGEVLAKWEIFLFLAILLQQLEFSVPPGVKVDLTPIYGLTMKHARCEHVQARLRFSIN
Method in brief: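 Test compound titrated 1:1 across ten concentrations; metabolite fluorescence measured after 37 °C incubation of 15 min (CYP1A2), 30 min (CYP2C19, CYP2D6) or 45 min (CYP2C9). IC50 from signal versus concentration.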

Fms kinase = Fms kinase (Homo sapiens, UniProt P07333); test: Fms kinase biochemical activity assay (AlphaScreen, biotin-(E4Y)10 phosphorylation); conditions: 100 μM ATP; read-out: Biochemical Inhibition IC50 Fms
Fms kinase, sequence (P07333 20-972): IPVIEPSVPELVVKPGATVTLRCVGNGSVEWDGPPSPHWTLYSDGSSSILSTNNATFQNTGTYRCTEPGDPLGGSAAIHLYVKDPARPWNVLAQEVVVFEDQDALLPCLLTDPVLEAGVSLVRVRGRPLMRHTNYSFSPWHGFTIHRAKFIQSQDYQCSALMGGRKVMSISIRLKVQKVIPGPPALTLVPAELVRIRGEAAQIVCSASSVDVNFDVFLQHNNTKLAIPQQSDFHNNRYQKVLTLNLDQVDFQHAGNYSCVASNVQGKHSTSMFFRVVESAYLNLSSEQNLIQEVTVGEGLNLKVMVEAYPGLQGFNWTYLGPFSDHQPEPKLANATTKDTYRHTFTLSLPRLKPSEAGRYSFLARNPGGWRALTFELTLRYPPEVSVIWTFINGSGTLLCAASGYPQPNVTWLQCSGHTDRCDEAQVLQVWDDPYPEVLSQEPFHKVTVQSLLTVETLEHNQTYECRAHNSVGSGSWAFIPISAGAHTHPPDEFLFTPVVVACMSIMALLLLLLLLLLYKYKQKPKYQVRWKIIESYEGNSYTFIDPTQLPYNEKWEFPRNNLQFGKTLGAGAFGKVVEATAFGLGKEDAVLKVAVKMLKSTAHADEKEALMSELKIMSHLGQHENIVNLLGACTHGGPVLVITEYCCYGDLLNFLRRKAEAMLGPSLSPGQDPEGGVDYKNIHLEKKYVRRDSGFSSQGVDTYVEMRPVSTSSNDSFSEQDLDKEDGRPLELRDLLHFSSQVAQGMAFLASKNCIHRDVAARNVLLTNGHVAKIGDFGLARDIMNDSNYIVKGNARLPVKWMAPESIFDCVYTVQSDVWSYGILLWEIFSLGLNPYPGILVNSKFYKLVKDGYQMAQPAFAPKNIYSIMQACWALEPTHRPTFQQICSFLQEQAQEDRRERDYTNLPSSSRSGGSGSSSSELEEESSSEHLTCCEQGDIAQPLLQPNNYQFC
Method in brief: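 AlphaScreen read-out (PY20 acceptor, streptavidin donor beads, EDTA stop) of biotin-(E4Y)10 phosphorylation, with IC50 taken from the concentration–signal curve. Reaction: 30 nM substrate, 100 μM ATP, 1 ng/well Fms, Hepes pH 7.5 with Mg2+/Mn2+, 5% DMSO, 20 min at 30 °C.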

Work on `Fc1nc(NC2CCC(F)(F)CC2)ccc1Cc1c[nH]c2ncnc(NCC(F)(F)F)c12` [Compound P-4128, 5-[[6-[(4,4-difluorocyclohexyl)amino]-2-fluoro-3-pyridyl]methyl]-N-(2,2,2-trifluoroethyl)-7H-pyrrolo[2,3-d]pyrimidin-4-amine] yielded an IC50 (CYP1A2) of over 10 µM and an IC50 (Fms kinase) of under 0.1 µM.
In the case of `O=C(c1ccc(Nc2ccc(C3CC3)nc2)nc1F)c1c[nH]c2ncccc12` [Compound P-3052, [6-(6-Cyclopropyl-pyridin-3-ylamino)-2-fluoro-pyridin-3-yl]-(1H-pyrrolo[2,3-b]pyridin-3-yl)-methanone], the IC50 (CYP1A2) is reported as over 10 µM and the IC50 (Fms kinase) is reported as under 0.1 µM.
With `COCCOc1ncnc2[nH]cc(Cc3ccc(Nc4ccc(OC)nc4)nc3F)c12` [Compound P-4019, {6-Fluoro-5-[4-(2-methoxy-ethoxy)-7H-pyrrolo[2,3-d]pyrimidin-5-ylmethyl]-pyridin-2-yl}-(6-methoxy-pyridin-3-yl)-amine] the IC50 (CYP1A2) was over 10 µM and the IC50 (Fms kinase) was under 0.01 µM.
`COc1ncnc2[nH]cc(Cc3ccc(Nc4ccc(Cl)nc4)nc3F)c12` [Compound P-4003, (6-Chloro-pyridin-3-yl)-[6-fluoro-5-(4-methoxy-7H-pyrrolo[2,3-d]pyrimidin-5-ylmethyl)-pyridin-2-yl]-amine] gave an IC50 (CYP1A2) of over 10 µM and an IC50 (Fms kinase) of under 0.1 µM.
With `CCc1ccc(Nc2ccc(Cc3c[nH]c4ncc(C)cc34)c(F)n2)cn1` [Compound P-3048, (6-Ethyl-pyridin-3-yl)-[6-fluoro-5-(5-methyl-1H-pyrrolo[2,3-b]pyridin-3-ylmethyl)-pyridin-2-yl]-amine] the IC50 (CYP1A2) was over 10 µM and the IC50 (Fms kinase) was under 0.01 µM.
Work on `CCOc1ncnc2[nH]cc(Cc3ccc(Nc4ccc(C)nc4)nc3F)c12` [Compound P-4017, [5-(4-Ethoxy-7H-pyrrolo[2,3-d]pyrimidin-5-ylmethyl)-6-fluoro-pyridin-2-yl]-(6-methyl-pyridin-3-yl)-amine] yielded an IC50 (CYP1A2) of over 10 µM and an IC50 (Fms kinase) of under 0.01 µM.
For `Cc1ccc(Nc2ccc(C(=O)c3c[nH]c4ncc(Cl)cc34)c(F)n2)cn1` [Compound P-3044, (5-Chloro-1H-pyrrolo[2,3-b]pyridin-3-yl)-[2-fluoro-6-(6-methyl-pyridin-3-ylamino)-pyridin-3-yl]-methanone], the IC50 (CYP1A2) was over 10 µM and the IC50 (Fms kinase) was under 0.01 µM.
`Cc1cnc2[nH]cc(Cc3ccc(Nc4ccc(C5CC5)nc4)nc3F)c2c1` [Compound P-3050, (6-Cyclopropyl-pyridin-3-yl)-[6-fluoro-5-(5-methyl-1H-pyrrolo[2,3-b]pyridin-3-ylmethyl)-pyridin-2-yl]-amine] gave an IC50 (CYP1A2) of over 10 µM and an IC50 (Fms kinase) of under 0.1 µM.
Work on `CCOc1ccc(Nc2ccc(C(=O)c3c[nH]c4ncnc(OC)c34)c(F)n2)cn1` [Compound P-4024, [6-(6-Ethoxy-pyridin-3-ylamino)-2-fluoro-pyridin-3-yl]-(4-methoxy-7H-pyrrolo[2,3-d]pyrimidin-5-yl)-methanone] yielded an IC50 (CYP1A2) of over 10 µM and an IC50 (Fms kinase) of under 1 µM.
Molecule `FC1(F)CCC(Nc2ncc(Cc3c[nH]c4ncc(Cl)cc34)cn2)CC1` [Compound P-3004] has an IC50 (CYP1A2) of over 10 µM and an IC50 (Fms kinase) of under 0.01 µM.
With `CCOc1ccc(Nc2ccc(Cc3c[nH]c4ncnc(OCCOC)c34)c(F)n2)cn1` [Compound P-4008, (6-Ethoxy-pyridin-3-yl)-{6-fluoro-5-[4-(2-methoxy-ethoxy)-7H-pyrrolo[2,3-d]pyrimidin-5-ylmethyl]-pyridin-2-yl}-amine] the IC50 (CYP1A2) was over 10 µM and the IC50 (Fms kinase) was under 0.01 µM.
For `CCOc1ncnc2[nH]cc(Cc3ccc(Nc4ccc(OC)nc4)nc3F)c12` [Compound P-4018, [5-(4-Ethoxy-7H-pyrrolo[2,3-d]pyrimidin-5-ylmethyl)-6-fluoro-pyridin-2-yl]-(6-methoxy-pyridin-3-yl)-amine], the IC50 (CYP1A2) was over 10 µM and the IC50 (Fms kinase) was under 0.01 µM.
For `CCc1ccc(Nc2ccc(Cc3c[nH]c4ncnc(C)c34)c(F)n2)cn1` [Compound P-4009, (6-Ethyl-pyridin-3-yl)-[6-fluoro-5-(4-methyl-7H-pyrrolo[2,3-d]pyrimidin-5-ylmethyl)-pyridin-2-yl]-amine], the IC50 (CYP1A2) was over 10 µM and the IC50 (Fms kinase) was under 0.01 µM.
